Here are results for five compounds from patent US10208007B2, “Use of strigolactones and strigolactone analogs for treating proliferative conditions” (The State of Israel, Ministry of Agriculture & Rural …, priority 2011, dated 2019).

Each structure is given as a SMILES string.

Assay [1] concerns MCF-7 mammospheres. In words: cells. It is filed as cell-based, human. Particulars: for Mammosphere numbers (>100 μM), percentage of vehicle treated control: 5 days; for viability at 5 ppm: Homo sapiens, MCF7, read-out: XTT viability of dissociated mammospheres; for Mammosphere morphology: 2.5-5 ppm, after 48 hours. Here is the method:
Given the similar effects the other strigolactone analogs had on breast cancer cell line growth compared to GR-24, we anticipated that the strigolactone analogs would also have similar effects on MCF-7 primary mammosphere formation (FIG. 10): MCF-7 cells were seeded in MEBM media into low attachment, 96 well plates in duplicate at 3000 cells per well. The same day the indicated doses of strigolactone analogs were added. After 7 days representative images were taken. […] Like GR-24, the doses required to inhibit mammosphere formation are lower than that required to inhibit proliferation in monolayer cultures (5 fold lower; ST-362 and MEB-55, 3 fold lower; ST-357). To determine if the sensitivity to strigolactone analogs treatments was specific to mammosphere formation or whether it extended to the integrity and survival of mature mammospheres, MCF-7 mammospheres were grown in the absence of strigolactone analogs and after 7 days (or once mammospheres had reached a mean diameter of over […]), strigolactone analogs were added to the growth media (FIG. 10) at the indicated doses. MCF-7 cells were seeded in MEBM media into low attachment, 96 well plates in duplicate at 3000 cells per well and primary mammospheres left to grow for 7 days. At which time the indicated doses of strigolactone analogs were added to the media. FIG. 11A is a representative image of mammospheres treated with 5 ppm concentrations, showing dissociation after 2 days of exposure to strigolactone analogs. […] Following […] treatment, mammospheres were monitored visually after 24 and 48 hours. No changes were observed following 24 hours of strigolactone analogs treatment. […] At 5 ppm concentrations EG-5, EG-9C, ST-357, ST-362 and MEB-55 reduce mammosphere numbers from 86.7+6.8 (vehicle control) to 23+5, 38+6.2, 6+2, 8.3+3.5 and 9.3+1.5%, respectively. At 2.5 ppm concentrations, mammosphere numbers were reduced to 35+6.9 (EG-5), 52+12.3 (EG-9C), 22+8.5 (ST-357), 6+1.7 (ST-362) and 20.7+8.6 (MEB-55). […] XTT viability assays were also carried out on dissociated mammospheres. At concentrations of 5 ppm, EG-5, ST-362 and MEB-55 reduced viability to 3.7+0.5, 25.5+8.8 and 4.6+1.1% respectively.
Background: Tetrazolium dyes change colour on reduction, which living cells bring about.

Assay [2] relates to BJ fibroblast. In words: Cell cycle analysis (propidium iodide, flow cytometry). In kind it is cell-based, human. Particulars: 48 hours. Here is the method: (§1) Adherent cells were trypsinyzed, washed twice with PBS and filtered through a […] cell sieve. DNA content was assessed by flow cytometry. Cells were seeded at densities of 1.5×10^5 cells (MDA-MB-231, MDA-MB-436), or 4×10^5 cells (MCF-7 and MCF10A), or 2×10^5 cells (SW480, HT-29), or 5×10^5 cells (HCT116), per well in DMEM with 10% FBS in 6-well plate culture dishes. […] After 48 hours, cells were washed twice with PBS (pH 7.4), centrifuged at 360 g for 10 minutes at 4° C., and fixed in chilled ethanol (70%; v/v in PBS) with gentle vortex mixing. To determine their DNA contents, the cells were stained with 40 μg/ml propidium iodide (hereinafter PI) and analyzed using a FACSCalibur flow cytometer and CellQuest analysis software (Becton Dickinson, San Jose, Calif.). Where phosphoHistone-H3 staining was carried out, cells were incubated with polyclonal antibody against phosphoHistone H3 and then with secondary Goat anti-rabbit IgG-conjugated to FITC prior to PI staining.
In general terms: A flow cytometer gives signals particle by particle.

In assay [3] the test system is MDA-MB-231. The assay is described as above. Particulars: 48 hours. It is filed as cell-based, human. As to the method: as §1
In assay [4] the test system is CYCB1. The assay can be described thus: Gene transcription level by quantitative PCR: CYCB1. In kind it is in vivo, Arabidopsis thaliana. To be noted: for CYCB1 transcription level versus controls: 3 μM. As to the method: Seeds of homozygous lines of Arabidopsis thaliana wild type (WT; Columbia; Col-0) and max2-1 mutant (http://abrc.osu.edu/) were surface-sterilized and germinated on 1/2 Murashige and Skoog (MS) plates supplemented with 1% sucrose and solidified with 0.7% agar. Plates were incubated vertically in the dark at 4° C. for two days to synchronize germination. Three days after germination, seedlings were gently transferred using forceps to 1/2 MS plates containing various concentrations of GR-24 as a mixture of four diastereomers: (±)-GR-24 and (±)-2'-epi-GR-24. The root tip of the transferred seedling was marked on the plates. The plates remained unsealed to prevent accumulation of gases (e.g., ethylene), and were positioned in an upright 45° position, and incubated at 22° C. with a light intensity of […] photons m-2 s-1 provided by white fluorescent tubes and under a photoperiod of 16 hours exposure to light/8 hours in the dark for 6-12 days. GR-24 treatments were conducted at concentrations ranging from 2.7×10^-6 to 13.5×10^-6 M. […] GR-24, ST-357 and ST-362 were initially dissolved in acetone to give a 4.5 mM, 10 μM and 10 μM solutions, respectively, which were then further diluted with double-distilled sterile water (DDW). […] In each of the experiments, non-treated roots were compared to the respective acetone control. Where no difference was observed between the various controls, non-treated roots are shown. Where differences were recorded between non-treated and acetone controls, the comparison was made between GR-24, ST-357 and ST-362-treated and acetone-treated roots. RNA was extracted from seedlings grown and treated as described in Example 1. Quantitative PCR was performed by amplifying fragments of genes of interest (Tables 6 & 7). Arabidopsis 15S ribosomal RNA (GenBank accession no. AT1G04270.1) served as the reference gene for the amount of RNA, and was amplified using specific primers (forward) [NT] and (reverse) [NT]. The experiment was performed in 5-6 biological replicates; each replicate included 8 plants, on which 3 technical repeats were performed. Means and standard error were determined from all biological replicates. Primers were designed using PrimerQuest software (Integrated DNA Technologies). RNA was extracted using Trizol (Invitrogen, Carlsbad, Calif., USA) using the manufacturer's protocol. 1 μg RNA was reverse-transcribed in a total volume of 20 μl using the Superscript First strand cDNA synthesis kit (Invitrogen). PCR was performed in triplicate using an ABI-Prism 7900 instrument (Applied Biosystems, Foster City, Calif.) and SYBR Green I detection (Applied Biosystems) according to the manufacturer's protocol. The expression of each target gene was normalized to the expression of GAPDH RNA and is presented as the ratio of the target gene to GAPDH RNA, expressed as 2-ΔCt, where Ct is the threshold cycle and ΔCt=[NT] GAPDH.

The mark [5] stands for this setting: 5 ppm, vehicle control 86.7+6.8.

On to `CC1=CC(O/C=C2\Cc3c(n(C)c4ccccc34)C2=O)OC1=O` (racemic) [EG-5, (±) (2E)-4-methyl-2-(4-methyl-5-oxo-2,5-dihydrofuran-2-yloxymethylene)-1,4-dihydro-2H-cyclopenta[b]indol-3-one], for which the “Mammosphere numbers (>100 μM), percentage of vehicle treated control” value in assay [1] (2.5 ppm) is given as 35+6.9%. Besides, the “Mammosphere numbers (>100 μM), percentage of vehicle treated control” value in assay [1] (setting [5]) was 23+5%. Moreover, the viability at 5 ppm in assay [1] was 3.7%. Moreover, in assay [2] (10 ppm), the “Cell Cycle Distribution G1” value worked out at 82.29%, the “Cell Cycle Distribution G2” value turned out to be 10.50%, the “Cell Cycle Distribution S” value came to 4.480% and the SubG1/Apoptosis was 0.49. In assay [3] (MDA-MB-231, 10 ppm), the “Cell Cycle Distribution G1” value is listed as 34.74%, the “Cell Cycle Distribution G2” value is reported as 35.70%, the “Cell Cycle Distribution S” value was 14.59% and the SubG1/Apoptosis is 11.32.

On to `CC1=CC(O/C=C2\Cc3c(n(C)c4cc(-c5cccs5)ccc34)C2=O)OC1=O` (racemic) [MEB-55, (±) 2E-4-methyl-2-(4-methyl-5-oxo-2,5-dihydrofuran-2-yloxymethylene)-6-thiophen-2-yl-1,4-dihydro-2H-cyclopenta[b]indol-3-one], for which, in assay [1], the Mammosphere morphology result is “exhibited a looser morphology and appeared to be dissociating”; the viability at 5 ppm turned out to be 4.6%. The “Mammosphere numbers (>100 μM), percentage of vehicle treated control” value in assay [1] (2.5 ppm) was determined as 20.7 ± 8.6%. Further, in assay [1] (setting [5]), the “Mammosphere numbers (>100 μM), percentage of vehicle treated control” value was 9.3+1.5%. In assay [2] (5 ppm), the “Cell Cycle Distribution G1” value turned out to be 78.96%, the “Cell Cycle Distribution G2” value was found to be 11.54%, the “Cell Cycle Distribution S” value was 5.930% and the SubG1/Apoptosis was found to be 0.57. In assay [3] (MDA-MB-231, 5 ppm), the “Cell Cycle Distribution G1” value is on record as 49.61%, the “Cell Cycle Distribution G2” value amounted to 28.33%, the “Cell Cycle Distribution S” value came to 14.51% and the SubG1/Apoptosis is 3.88.

As to `CC1=C[C@H](O/C=C2/C(=O)O[C@@H]3c4ccccc4C[C@H]23)OC1=O` (relative stereo) [GR-24, (3aR*,8bS*,E)-3-(((R*)-4-methyl-5-oxo-2,5-dihydrofuran-2-yloxy)methylene)-3,3a,4,8b-tetrahydro-2H-indeno[1,2-b]furan-2-one], the “CYCB1 transcription level versus controls” value in assay [4] (WT seedlings) is listed as 0.008 ± 0.003; in assay [4] (max2-1 seedlings) it was 0.211 ± 0.078. The “CYCB1 transcription relative to controls” value in assay [4] (root tips, 2.7 μM) is reported as 0.97±0.47. For the same compound, the “CYCB1 transcription in comparison to controls” value in assay [4] (root tips, 13.5 μM) is 0.16±0.00. Moreover, the “Increase in the sub-G1/apoptotic fraction compared to vehicle” value in assay [3] (10 ppm) is 4.6 fold.

Turning to `CC1=CC(O/C=C2/C(=O)c3c(c4cc(-c5cccs5)ccc4n3C)C2C)OC1=O` (centres unmarked) [ST-357, (2E)-1,4-dimethyl-2-((4-methyl-5-oxo-2,5-dihydrofuran-2-yloxy)methylene)-7-(thiophen-2-yl)-1,2-dihydrocyclopenta[b]indol-3(4H)-one], the “CYCB1 transcription level versus controls” value in assay [4] (WT seedlings) came out at 0.460 ± 0.362. Further, the Mammosphere morphology entry in assay [1] was “exhibited a looser morphology and appeared to be dissociating”. The “Mammosphere numbers (>100 μM), percentage of vehicle treated control” value is 22+8.5% in assay [1] (2.5 ppm) and 6+2% in assay [1] (setting [5]).

Take `CC1=CC(O/C=C2/C(=O)c3c(c4cc(-c5scc6c5OCCO6)ccc4n3C)C2C)OC1=O` (centres unmarked) [ST-362, (2E)-2-[(2,5-dihydro-4-methyl-5-oxofuran-2-yloxy)methylene]-1,2-dihydro-7-(2,3-dihydrothieno[3,4-b][1,4]dioxin-7-yl)-1,4-dimethyl-cyclopenta[b]indole-3-(4H)-one]: the “CYCB1 transcription level versus controls” value in assay [4] (WT seedlings) stood at 0.008 ± 0.007. The Mammosphere morphology entry in assay [1] is “exhibited a looser morphology and appeared to be dissociating”. Further, the “Mammosphere numbers (>100 μM), percentage of vehicle treated control” value in assay [1] (2.5 ppm) was 6+1.7%. The “Mammosphere numbers (>100 μM), percentage of vehicle treated control” value in assay [1] (setting [5]) is listed as 8.3+3.5%. Further, in assay [2] (5 ppm), the “Cell Cycle Distribution G1” value came out at 83.42%, the “Cell Cycle Distribution G2” value amounted to 12.86%, the “Cell Cycle Distribution S” value is given as 1.580% and the SubG1/Apoptosis was 0.72. Moreover, in assay [3] (MDA-MB-231, 5 ppm), the “Cell Cycle Distribution G1” value worked out at 42.17%, the “Cell Cycle Distribution G2” value amounted to 37.93%, the “Cell Cycle Distribution S” value is given as 11.90% and the SubG1/Apoptosis is 4.17.

As a reminder, the viability is a per cent measure of how many cells are alive, often set against a control.
